Reference: paper PMC9063844, “Synergic action of an inserted carbohydrate-binding module in a glycoside hydrolase family 5 endoglucanase” (Acta Crystallographica. Section D, Structural Biology, 2022)

How the values were obtained:
[1] = target: T1, ΔCBM (Meiothermus taiwanensis, UniProt A0A399DY85, DEL251-380); test: X-ray crystal structure (crystal soaked with […] cellobiose); format: binding; details: 1.53 Å; between Trp43 and Trp224
T1 construct: gene celH; CBM-deleted MtGlu5, residues 1-235 joined to 366-455 (catalytic domain only); pET-21, C-terminal His6; E. coli BL21(DE3)

[2] = target: T2, MtGlu5 (Meiothermus taiwanensis, UniProt A0A399DY85); test: hydrolysis, specific activity (reducing sugar, DNS); format: biochemical; details: optimum pH 5.0, 60 °C
T2 construct: gene celH; residues 15-470, signal peptide removed, catalytic domain with inserted CBM29-like domain (236-365); pET-21, C-terminal His6; E. coli BL21(DE3)

[3] = target: T1, ΔCBM; test: turnover in the soaked crystal (glucose found instead of cellopentaose); format: binding; details: crystal soak, 10 mM cellopentaose
[4] = target: T1, ΔCBM; test: X-ray crystal structure (crystal soaked with cellopentaose); format: binding; details: 1.53 Å; between Trp43 and Trp224; glucose from cellopentaose cleavage
[5] = target: T2, MtGlu5; test: X-ray crystal structure (co-crystallised with CMC); format: binding; details: 2.99 Å; glucose from CMC hydrolysis, stacked between Trp43 and Trp224 in the catalytic pocket (-2 or -3 subsite)

T1 sequence (A0A399DY85 entry or part of it DEL251-380): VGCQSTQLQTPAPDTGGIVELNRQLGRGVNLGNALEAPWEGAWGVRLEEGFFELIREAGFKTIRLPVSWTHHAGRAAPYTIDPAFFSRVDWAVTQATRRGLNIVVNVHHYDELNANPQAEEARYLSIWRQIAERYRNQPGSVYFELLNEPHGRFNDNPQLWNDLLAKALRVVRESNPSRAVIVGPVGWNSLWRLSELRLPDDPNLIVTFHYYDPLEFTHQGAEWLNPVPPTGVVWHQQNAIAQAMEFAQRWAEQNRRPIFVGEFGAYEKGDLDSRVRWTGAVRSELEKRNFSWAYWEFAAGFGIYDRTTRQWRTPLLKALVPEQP
T2 sequence (A0A399DY85 entry or part of it): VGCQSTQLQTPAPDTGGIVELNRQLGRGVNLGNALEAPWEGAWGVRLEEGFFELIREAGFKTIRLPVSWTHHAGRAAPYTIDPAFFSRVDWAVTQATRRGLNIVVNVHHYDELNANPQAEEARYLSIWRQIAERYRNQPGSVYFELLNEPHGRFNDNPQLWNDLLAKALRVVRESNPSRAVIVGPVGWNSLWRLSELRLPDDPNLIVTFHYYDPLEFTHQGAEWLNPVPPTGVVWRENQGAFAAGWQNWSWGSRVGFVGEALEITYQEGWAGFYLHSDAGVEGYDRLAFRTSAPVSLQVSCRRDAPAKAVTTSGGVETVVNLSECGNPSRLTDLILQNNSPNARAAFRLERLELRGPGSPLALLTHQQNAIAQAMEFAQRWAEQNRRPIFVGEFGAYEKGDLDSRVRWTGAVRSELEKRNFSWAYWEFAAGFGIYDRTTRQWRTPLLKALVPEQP

## OC[C@H]1O[C@@H](O[C@H]2[C@H](O)[C@@H](O)C(O)O[C@@H]2CO)[C@H](O)[C@@H](O)[C@@H]1O (some centres unmarked) [cellobiose]
[1]
  X-ray crystal structure (crystal soaked with 10 mM cellobiose): ΔCBM crystals in complex with glucose and cellobiose were obtained by soaking with cellopentaose and cellobiose

## OC[C@H]1O[C@@H](O[C@H]2[C@H](O)[C@@H](O)[C@H](O[C@H]3[C@H](O)[C@@H](O)[C@H](O[C@H]4[C@H](O)[C@@H](O)[C@H](O[C@H]5[C@H](O)[C@@H](O)C(O)O[C@@H]5CO)O[C@@H]4CO)O[C@@H]3CO)O[C@@H]2CO)[C@H](O)[C@@H](O)[C@@H]1O (some centres unmarked) [cellopentaose]
[2]
  hydrolysis, specific activity (reducing sugar, DNS): specific activities of MtGlu5 towards CMC, β-glucan (barley) and cellopentaose
[3]
  turnover in the soaked crystal (glucose found instead of cellopentaose): presence of bound glucose rather than cellopentaose in the former crystal

## OC[C@H]1OC(O)[C@H](O)[C@@H](O)[C@@H]1O (some centres unmarked) [glucose]
[4]
  X-ray crystal structure (crystal soaked with cellopentaose): ΔCBM crystals in complex with glucose and cellobiose were obtained by soaking with cellopentaose and cellobiose
[5]
  X-ray crystal structure (co-crystallised with CMC): Bound glucose was observed in the MtGlu5 crystal
